Test results from patent publication US5736565A, “Therapeutic compounds suitable for the treatment of diseases connected with glutathione deficiency, process for their preparation, and pharmaceutical compositions containing same” (Prospa B.V., priority 1992, dated 1998).
Values joined by “and” are separate entries in the source; they are usually repeats but may differ in a detail not shown here. Equal entries are not always repeated.

Tests used:
hepatic GSH [1] = assay: Test No. 1: protection from ethanol acute administration, hepatic GSH content; type: in vivo, male albino Wistar rats; parameters: GSH Content: unit not given beside the values; settings: liver; ethanol 3 g/kg i.p.; test substance 50 mg/kg
Description: Protection from ethanol acute administration […] Male albino Wistar rats weighing between 180 and 230 g were used. All animals were fasted for 24 hours prior to administration of isotonic solution, ethanol or ethanol combined with the test substances. As concerns the test substances, rats were intraperitoneally (i.p.) injected with compound of formula I (R=CH3) at doses of 10, 30, and 50 mg/kg and, for purposes of comparison, with the single constituents of compound (I) (R=CH3), […] (O-PRO) and L-cysteine (CIS), both at a 50 mg/kg dose. One hour after administration of the test substance, ethanol was injected i.p. at the dose of 3 g/kg. Thirty minutes later, the animals were sacrificed by decapitation and their liver was excised. […] Orwar et al., J. Chromatrogr., 556, 39-55 (1991).

hepatic GSH [2] = assay: Test No. 4: dichloropropane (DCP) intoxication in vivo, hepatic GSH; parameters: species or system rat; settings: for normalization of hepatic GSH (in words): DCP-treated rats
Description: (§1) A test was carried out in vivo on four groups of four rats each, using, as a toxic substance, dichloropropane (DCP), the main constituent of several solvents. DCP is noxious both by ingestion and inhalation and has a notable toxicity to the liver, mediated by an almost total depletion of thiol groups, including those of GSH.
(§2) The experimental model involves the study of the effect of DCP toxicity in the rat, in respect of glutathione (GSH) concentration in the main target tissue: the liver.
(§3) Tests were carried out on four groups of rats. The first group of animals was administered 2 ml DCP/kg dissolved in oil (40% v/v) per os. Twenty-four hours after DCP administration, blood samples were taken for SGPT measurement, while the animals were sacrificed; small portions of liver were then excised and immediately deproteinized by homogenization in 6% PCA. The chromatographic analyses of GSH and GSSG (oxidized glutathione) were performed.
(§4) The second group of animals was treated with the test drug (600 mg/kg i.p.) two hours after DCP administration. The third and fourth groups were treated with N-acetyl-cysteine (NAC) (250 mg/kg i.p.) and, respectively, with glutathione (Tationil^R) (600 mg/kg i.p.).
An evaluation of the protective action of the test drug in respect of glutathione involvement in hepatic protection mechanisms was thus possible.

DCP toxicity in the rat = assay: Test No. 4: dichloropropane (DCP) intoxication in vivo, death rate and signs; parameters: key to animal 4, symbol in GSH table: --: dead; settings: DCP + 250 mg/kg i.p.
Description: as §1, §2, §3, §4

| SMILES | GSH Content (hepatic GSH [1]) | normalization of hepatic GSH (in words) (hepatic GSH [2]) | animal 4, symbol in GSH table (DCP toxicity in the rat) | GSH, average values (hepatic GSH [2]; liver, DCP 2 ml/kg per os + 250 mg/kg i.p.) [nmol/mg protein] | GSH, individual animals (hepatic GSH [2]; liver, DCP 2 ml/kg per os + 250 mg/kg i.p., animals 1-3, 250 mg/kg) |
| --- | --- | --- | --- | --- | --- |
| N[C@@H](CS)C(=O)O [CIS, L-cysteine, reference compound] | 2.7 ± 0.3 |  |  |  |  |
| N[C@@H](CCC(=O)N[C@@H](CS)C(=O)NCC(=O)O)C(=O)O [GSH, glutathione] | 3.5 ± 0.6 | could not normalize the values of hepatic GSH |  |  |  |
| CC(=O)N[C@@H](CS)C(=O)O [NAC, N-acetyl-L-cysteine, reference compound] |  | could not normalize the values of hepatic GSH | -- | 2.4 | 2.0 nmol/mg protein and 2.9 nmol/mg protein and 2.3 nmol/mg protein |
| O=C1CC[C@@H](C(=O)O)N1 [O-PRO, 5-oxy-L-proline, reference compound] | 3.4 ± 0.3 |  |  |  |  |
